Data as given in EPA's ToxValDB 9.5 (doi:10.2903/j.efsa.2010.1906).
In brackets after ≈: the same amount, converted by molar mass.

Tests used:
[1] = test system: Anas platyrhynchos; conditions: reproductive
[2] = test system: Apis mellifera; conditions: acute; duration: 48 hours; oral; unspecified; mortality
[3] = test system: Bibionidae; conditions: chronic/long-term; duration: 28 days; development
[4] = test system: Canidae; conditions: subchronic; duration: 90 days; oral; F; Dog Other; body weight
[5] = test system: Colinus virginianus; conditions: acute, oral, mortality
[6] = test system: Daphnia magna; conditions: chronic/long-term; duration: 21 days; reproduction
[7] = test system: Folsomia candida; conditions: chronic/long-term, duration: 28 days
[8] = test system: Landoltia sp.; conditions: acute; duration: 14 days
[9] = test system: Lepomis macrochirus; conditions: acute; duration: 96 hours; mortality
[10] = test system: Mus musculus; conditions: chronic; histopathology: neoplastic
[11] = test system: Oryctolagus sp.; conditions: developmental; development
[12] = test system: Pimephales promelas; conditions: chronic/long-term; duration: 34 days; reproduction
[13] = test system: Rattus norvegicus; conditions: oral
[14] = test system: Tagia sp.

For `CCOc1cc(Oc2ccc(C(F)(F)F)cc2Cl)ccc1[N+](=O)[O-]` [Oxyfluorfen], the NOEL [1] was 64.7 mg/kg-day, the LD50 [2] was > 100 µg/piece and the NOEC [3] was 0.08 mg/L. For the same compound, the NOAEL [4] was 2.17 mg/kg-day, the LD50 ([5]; diet) was > 462 mg/kg-day and the LD50 [5] was > 2150 mg/kg-day. For the same compound, the NOEC [6] was 0.013 mg/L, the LC50 ([7]; mortality) was 2.78 mg/kg and the NOEC ([7]; reproduction) was 1.25 mg/kg. It also gave an NOEC [8] of 0.00195 mg/L, an LC50 [9] of 0.21 µg/mL (≈ 0.581 µM) and an NOAEL [10] of 3 mg/kg-day. For the same compound, the NOAEL [11] was 30 mg/kg-day, the NOEC [12] was 0.038 mg/L and the LD50 ([13]; acute, mortality) was > 5000 mg/kg-day. For the same compound, the NOAEL ([13]; chronic, duration: 2 years) was 20 mg/kg-day, the LC50 ([14]; acute, duration: 14 days, mortality) was > 1000 mg/kg and the NOEC ([14]; chronic/long-term, duration: 56 days) was 24 mg/kg.
